Values quoted from earlier work, collected in patent publication US6849609B2, “Method and composition for controlled release acarbose formulations” (priority 2001, dated 2005).

System: patients

hypoglycemia (acarbose alone, even when administered to patients in a fasted state): has not been shown to cause hypoglycemia
Compound: C[C@H]1O[C@H](O[C@H]2[C@H](O)[C@@H](O)[C@@H](O[C@H]3[C@H](O)[C@@H](O)C(O)O[C@@H]3CO)O[C@@H]2CO)[C@H](O)[C@@H](O)[C@@H]1N[C@H]1C=C(CO)[C@@H](O)[C@H](O)[C@H]1O (some centres unmarked) [Acarbose]
most common adverse events (patients taking acarbose, shown to abate with time): flatulence, diarrhea and abdominal discomfort
